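Exposure lasted 48 hours, with cells grown in 96-well plates and compounds tested at five concentrations. GI50 is the concentration that inhibits growth by half. TGI denotes the concentration required for complete inhibition of growth.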
What was measured:
Experiment in all cases: growth of human tumour cells (NCI), 48 h
NCI-H23 lung = test system: NCI-H23 lung
LOX IMVI melanoma = test system: LOX IMVI melanoma
MCF7 breast = test system: MCF7 breast
U251 CNS = test system: U251 CNS
COLO 205 colon = test system: COLO 205 colon
SF-268 CNS = test system: SF-268 CNS
NCI-H460 lung = test system: NCI-H460 lung
OVCAR-8 ovarian = test system: OVCAR-8 ovarian
SN12C renal = test system: SN12C renal
UACC-62 melanoma = test system: UACC-62 melanoma
SF-539 CNS = test system: SF-539 CNS
HCT-116 colon = test system: HCT-116 colon
NCI-H226 lung = test system: NCI-H226 lung
SF-295 CNS = test system: SF-295 CNS
HOP-92 NSCLC = test system: HOP-92 NSCLC
OVCAR-5 ovarian = test system: OVCAR-5 ovarian
M14 melanoma = test system: M14 melanoma
MDA-MB-435 = test system: MDA-MB-435
RXF 393 renal = test system: RXF 393 renal
NCI/ADR-RES ovarian = test system: NCI/ADR-RES ovarian
ACHN renal = test system: ACHN renal
IGROV1 ovarian = test system: IGROV1 ovarian
MALME-3M melanoma = test system: MALME-3M melanoma
HT29 colon = test system: HT29 colon
OVCAR-3 ovarian = test system: OVCAR-3 ovarian
A498 renal = test system: A498 renal
786-0 renal = test system: 786-0 renal
BT-549 breast = test system: BT-549 breast
SK-MEL-28 melanoma = test system: SK-MEL-28 melanoma
SK-MEL-5 melanoma = test system: SK-MEL-5 melanoma
MDA-MB-231 breast = test system: MDA-MB-231 breast
OVCAR-4 ovarian = test system: OVCAR-4 ovarian
SK-OV-3 ovarian = test system: SK-OV-3 ovarian
DU-145 prostate = test system: DU-145 prostate
HS 578T breast = test system: HS 578T breast
HCT-15 colon = test system: HCT-15 colon
NCI-H522 lung = test system: NCI-H522 lung
SW-620 colon = test system: SW-620 colon
UACC-257 melanoma = test system: UACC-257 melanoma
SK-MEL-2 melanoma = test system: SK-MEL-2 melanoma
EKVX NSCLC = test system: EKVX NSCLC
PC-3 prostate = test system: PC-3 prostate
A549 NSCLC = test system: A549 NSCLC
CAKI-1 renal = test system: CAKI-1 renal
RPMI-8226 leukemia = test system: RPMI-8226 leukemia
HCC-2998 colon = test system: HCC-2998 colon
SNB-75 CNS = test system: SNB-75 CNS
KM12 colon = test system: KM12 colon
SNB-19 CNS = test system: SNB-19 CNS
UO-31 renal = test system: UO-31 renal
TK-10 renal = test system: TK-10 renal

For `O=Nc1ccc(O)c2ccccc12`, the GI50 (NCI-H23 lung) was 1.45 µM, the TGI (NCI-H23 lung) was 4.17 µM and the GI50 (LOX IMVI melanoma) was 0.668 µM. The TGI (LOX IMVI melanoma) was 2.28 µM, the GI50 (MCF7 breast) was 1.81 µM and the TGI (MCF7 breast) was 4.31 µM. It also gave a GI50 (U251 CNS) of 1.65 µM, a TGI (U251 CNS) of 3.17 µM and a GI50 (COLO 205 colon) of 1.93 µM. It also gave a TGI (COLO 205 colon) of 3.92 µM, a GI50 (SF-268 CNS) of 2.29 µM and a TGI (SF-268 CNS) of 5.87 µM. The GI50 (NCI-H460 lung) was 3.66 µM, the TGI (NCI-H460 lung) was 13.5 µM and the GI50 (OVCAR-8 ovarian) was 1.57 µM. For the same compound, the TGI (OVCAR-8 ovarian) was 5 µM, the GI50 (SN12C renal) was 1.38 µM and the TGI (SN12C renal) was 3.22 µM. The GI50 (UACC-62 melanoma) was 1.69 µM, the TGI (UACC-62 melanoma) was 3.37 µM and the GI50 (SF-539 CNS) was 2.11 µM. The TGI (SF-539 CNS) was 4.05 µM, the GI50 (HCT-116 colon) was 1.17 µM and the TGI (HCT-116 colon) was 2.46 µM. The GI50 (NCI-H226 lung) was 2.02 µM, the TGI (NCI-H226 lung) was 4.3 µM and the GI50 (SF-295 CNS) was 2.04 µM. The TGI (SF-295 CNS) was 4.55 µM, the GI50 (HOP-92 NSCLC) was 3.31 µM and the TGI (HOP-92 NSCLC) was 9.01 µM. It also gave a GI50 (OVCAR-5 ovarian) of 2.13 µM, a TGI (OVCAR-5 ovarian) of 4.21 µM and a GI50 (M14 melanoma) of 1.83 µM. For the same compound, the TGI (M14 melanoma) was 3.41 µM, the GI50 (MDA-MB-435) was 0.33 µM and the TGI (MDA-MB-435) was 1.1 µM. It also gave a GI50 (RXF 393 renal) of 2.86 µM, a TGI (RXF 393 renal) of 8.24 µM and a GI50 (NCI/ADR-RES ovarian) of 1.11 µM. For the same compound, the TGI (NCI/ADR-RES ovarian) was 6.61 µM, the GI50 (ACHN renal) was 1.69 µM and the TGI (ACHN renal) was 3.14 µM. The GI50 (IGROV1 ovarian) was 1.51 µM, the TGI (IGROV1 ovarian) was 3.29 µM and the GI50 (MALME-3M melanoma) was 1.61 µM. The TGI (MALME-3M melanoma) was 3.62 µM, the GI50 (HT29 colon) was 1.86 µM and the TGI (HT29 colon) was 5.71 µM. For the same compound, the GI50 (OVCAR-3 ovarian) was 0.25 µM, the TGI (OVCAR-3 ovarian) was 0.643 µM and the GI50 (A498 renal) was 15.1 µM. It also gave a TGI (A498 renal) of 28.6 µM, a GI50 (786-0 renal) of 4.1 µM and a TGI (786-0 renal) of 12.6 µM. The GI50 (BT-549 breast) was 1.93 µM, the TGI (BT-549 breast) was 3.35 µM and the GI50 (SK-MEL-28 melanoma) was 2.59 µM. The TGI (SK-MEL-28 melanoma) was 6.12 µM, the GI50 (SK-MEL-5 melanoma) was 1.65 µM and the TGI (SK-MEL-5 melanoma) was 3.04 µM. It also gave a GI50 (MDA-MB-231 breast) of 2.93 µM, a TGI (MDA-MB-231 breast) of 20.4 µM and a GI50 (OVCAR-4 ovarian) of 1.17 µM. The TGI (OVCAR-4 ovarian) was 2.44 µM, the GI50 (SK-OV-3 ovarian) was 4.93 µM and the TGI (SK-OV-3 ovarian) was 16.3 µM. The GI50 (DU-145 prostate) was 1.77 µM, the TGI (DU-145 prostate) was 3.22 µM and the GI50 (HS 578T breast) was 0.868 µM. For the same compound, the TGI (HS 578T breast) was 4.18 µM, the GI50 (HCT-15 colon) was 2.14 µM and the TGI (HCT-15 colon) was 4.98 µM. The GI50 (NCI-H522 lung) was 1.6 µM, the TGI (NCI-H522 lung) was 3.48 µM and the GI50 (SW-620 colon) was 1.82 µM. It also gave a TGI (SW-620 colon) of 3.6 µM, a GI50 (UACC-257 melanoma) of 1.63 µM and a TGI (UACC-257 melanoma) of 3.23 µM. It also gave a GI50 (SK-MEL-2 melanoma) of 1.7 µM, a TGI (SK-MEL-2 melanoma) of 3.72 µM and a GI50 (EKVX NSCLC) of 1.88 µM. The TGI (EKVX NSCLC) was 4.43 µM, the GI50 (PC-3 prostate) was 1.88 µM and the TGI (PC-3 prostate) was 6.99 µM. It also gave a GI50 (A549 NSCLC) of 2.14 µM, a TGI (A549 NSCLC) of 4.79 µM and a GI50 (CAKI-1 renal) of 1.63 µM. The TGI (CAKI-1 renal) was 4.03 µM, the GI50 (RPMI-8226 leukemia) was 2.4 µM and the TGI (RPMI-8226 leukemia) was 7.58 µM. For the same compound, the GI50 (HCC-2998 colon) was 3.31 µM, the TGI (HCC-2998 colon) was 11.3 µM and the GI50 (SNB-75 CNS) was 1.44 µM. It also gave a TGI (SNB-75 CNS) of 3.02 µM, a GI50 (KM12 colon) of 2.17 µM and a TGI (KM12 colon) of 6.02 µM. The GI50 (SNB-19 CNS) was 2.31 µM, the TGI (SNB-19 CNS) was 6.65 µM and the GI50 (UO-31 renal) was 1.36 µM. The TGI (UO-31 renal) was 3.37 µM, the GI50 (TK-10 renal) was 2.24 µM and the TGI (TK-10 renal) was 4.66 µM.
